Results as given in PubChem BioAssay AID256 (DTP/NCI, 2004).
Values joined by “and” are separate entries in the source; they are usually repeats but may differ in a detail not shown here. Equal entries are not always repeated. Toxic doses and inconclusive results are not listed. Rule for the calls: active = survival T/C of 150% or more; inactive = T/C below 125% in these data.

Tested on: CD2F1 mice, L1210 leukemia ip, survival T/C
Assay: NCI In Vivo Anticancer Drug Screen. Data for tumor model L1210 Leukemia (intraperitoneal) in CD2F1 (CDF1) mice
Conditions: higher = longer survival
Procedure, shortened: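 Ratio T/C, where T is the treated-group value and C the vehicle-dosed control value, from mice implanted with a transplantable tumor.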

[1] = endpoint: mean survival time, dose: 100.0 mg/kg/injection, schedule: Q01DX009 (ip), vehicle: saline with Tween-80
[2] = endpoint: mean survival time, dose: 200.0 mg/kg/injection, schedule: Q01DX009 (ip), vehicle: saline with Tween-80
[3] = endpoint: mean survival time, dose: 400.0 mg/kg/injection, schedule: Q01DX009 (ip), vehicle: saline with Tween-80
[4] = endpoint: mean survival time, dose: 50.0 mg/kg/injection, schedule: Q01DX001 (ip), vehicle: saline
[5] = endpoint: mean survival time, dose: 100.0 mg/kg/injection, schedule: Q01DX001 (ip), vehicle: saline
[6] = endpoint: mean survival time, dose: 200.0 mg/kg/injection, schedule: Q01DX001 (ip), vehicle: saline
[7] = endpoint: mean survival time, dose: 400.0 mg/kg/injection, schedule: Q01DX001 (ip), vehicle: saline
[8] = endpoint: mean survival time, dose: 100.0 mg/kg/injection, schedule: Q04DX003 (ip), vehicle: saline with Tween-80
[9] = endpoint: mean survival time, dose: 200.0 mg/kg/injection, schedule: Q04DX003 (ip), vehicle: saline with Tween-80
[10] = endpoint: mean survival time, dose: 400.0 mg/kg/injection, schedule: Q04DX003 (ip), vehicle: saline with Tween-80
[11] = endpoint: mean survival time, dose: 100.0 mg/kg/injection, schedule: Q01DX001 (ip), vehicle: saline with Tween-80
[12] = endpoint: mean survival time, dose: 200.0 mg/kg/injection, schedule: Q01DX001 (ip), vehicle: saline with Tween-80
[13] = endpoint: mean survival time, dose: 400.0 mg/kg/injection, schedule: Q01DX001 (ip), vehicle: saline with Tween-80
[14] = endpoint: mean survival time, dose: 100.0 mg/kg/injection, schedule: Q04DX002 (ip), vehicle: saline with Tween-80
[15] = endpoint: mean survival time, dose: 50.0 mg/kg/injection, schedule: Q01DX009 (ip), vehicle: saline with Tween-80
[16] = endpoint: mean survival time, dose: 50.0 mg/kg/injection, schedule: Q01DX001 (ip), vehicle: saline with Tween-80

Measured: T/C

c1ccc(Cn2cccc2N=Nc2ccccc2)cc1
inactive: endpoint: mean survival time, dose: 100.0 mg/kg/injection, schedule: Q01DX001 (ip), vehicle: other 98 % of control | endpoint: mean survival time, dose: 200.0 mg/kg/injection, schedule: Q01DX001 (ip), vehicle: other 101 % of control | endpoint: mean survival time, dose: 400.0 mg/kg/injection, schedule: Q01DX001 (ip), vehicle: other 98 % of control

CC(=O)c1ccc(N=Nc2c(N)nc(N)[nH]c2=O)cc1
inactive: [1] 86 % of control | [2] 105 % of control | [3] 102 % of control

CN=[N+]([O-])C1(OC(C)=O)CCCC1
inactive: [4] 110 % of control | [5] 117 % of control

CC(=O)N/C(=C\c1ccccc1)C(N)=O
inactive: [1] 103 % of control | [2] 95 % of control | [3] 100 % of control

O=c1[nH]cnc2c1ncn2C1OC(CO)C(O)C1O (stereo unspecified)
inactive: [4] 100 % of control | [5] 100 % of control | [6] 97 % of control | [7] 100 % of control

O=Cc1cc2c3c(c1)CCCN3CCC2
inactive: [8] 97 % of control | [9] 102 % of control | [10] 94 % of control

O=Nc1c(O)sc2ccccc12
inactive: [11] 110 % of control | [1] 97 % of control | [12] 105 % of control | [2] 100 % of control | [13] 95 % of control | [3] 94 % of control

[Cl][Pt+2][Cl].[NH-]c1ccccc1F.[NH-]c1ccccc1F
inactive: endpoint: mean survival time, dose: 15.63 mg/kg/injection, schedule: Q04DX003 (ip), vehicle: saline with Tween-80 112 % of control | endpoint: mean survival time, dose: 31.25 mg/kg/injection, schedule: Q04DX003 (ip), vehicle: saline with Tween-80 108 % of control | endpoint: mean survival time, dose: 62.5 mg/kg/injection, schedule: Q04DX003 (ip), vehicle: saline with Tween-80 115 % of control | endpoint: mean survival time, dose: 125.0 mg/kg/injection, schedule: Q04DX003 (ip), vehicle: saline with Tween-80 93 % of control

COc1ccc(COC(=O)Oc2ccccc2)cc1OC
inactive: [14] 93 % of control | endpoint: mean survival time, dose: 200.0 mg/kg/injection, schedule: Q04DX002 (ip), vehicle: saline with Tween-80 101 % of control | endpoint: mean survival time, dose: 400.0 mg/kg/injection, schedule: Q04DX002 (ip), vehicle: saline with Tween-80 96 % of control

CC(=O)c1cccc(OCc2ccccc2)c1
inactive: endpoint: mean survival time, dose: 100.0 mg/kg/injection, schedule: Q04DX003 (ip), vehicle: other 96 % of control | endpoint: mean survival time, dose: 200.0 mg/kg/injection, schedule: Q04DX003 (ip), vehicle: other 96 % of control

O=[N+]([O-])c1ccc(CS(=O)(=O)O)cc1
inactive: endpoint: mean survival time, dose: 100.0 mg/kg/injection, schedule: Q04DX002 (ip), vehicle: saline 104 % of control | endpoint: mean survival time, dose: 200.0 mg/kg/injection, schedule: Q04DX002 (ip), vehicle: saline 96 % of control | endpoint: mean survival time, dose: 400.0 mg/kg/injection, schedule: Q04DX002 (ip), vehicle: saline 96 % of control

CN(C)CCOC(=O)COc1ccc(Cl)cc1
inactive: [5] 97 % of control | [6] 100 % of control | [7] 94 % of control

O=C1CSC(=S)N1
inactive: [1] 89 % of control | [8] 105 % of control | [2] 97 % of control | [9] 92 % of control | [10] 94 % of control

CCC(=O)C(C)N(C)c1ccccc1 (stereo unspecified)
inactive: endpoint: mean survival time, dose: 100.0 mg/kg/injection, schedule: Q04DX003 (ip), vehicle: saline 100 % of control | endpoint: mean survival time, dose: 200.0 mg/kg/injection, schedule: Q04DX003 (ip), vehicle: saline 100 % of control | endpoint: mean survival time, dose: 400.0 mg/kg/injection, schedule: Q04DX003 (ip), vehicle: saline 94 % of control

O=c1[nH]c(=S)[nH]c(-c2ccc(Cl)cc2)c1CCO
inactive: [8] 94 % of control | [9] 92 % of control | [10] 90 % of control

CSc1ncnc2nn(C3OC(COC(=O)c4ccccc4)C(OC(=O)c4ccccc4)C3OC(=O)c3ccccc3)nc12 (stereo unspecified)
inactive: endpoint: median survival time, dose: 12.5 mg/kg/injection, schedule: Q01DX005 (ip), vehicle: Klucel (hydroxypropylcellulose) (HPC) 94 % of control | endpoint: median survival time, dose: 25.0 mg/kg/injection, schedule: Q01DX005 (ip), vehicle: Klucel (hydroxypropylcellulose) (HPC) 86 % of control | endpoint: median survival time, dose: 50.0 mg/kg/injection, schedule: Q01DX005 (ip), vehicle: Klucel (hydroxypropylcellulose) (HPC) 87 % of control | endpoint: median survival time, dose: 100.0 mg/kg/injection, schedule: Q01DX005 (ip), vehicle: Klucel (hydroxypropylcellulose) (HPC) 93 % of control and 95 % of control | endpoint: median survival time, dose: 200.0 mg/kg/injection, schedule: Q01DX005 (ip), vehicle: Klucel (hydroxypropylcellulose) (HPC) 89 % of control and 95 % of control | endpoint: median survival time, dose: 400.0 mg/kg/injection, schedule: Q01DX005 (ip), vehicle: Klucel (hydroxypropylcellulose) (HPC) 95 % of control

NC(=S)Nc1ccc(C(=O)O)cc1
inactive: [1] 96 % of control | [8] 93 % of control | [2] 100 % of control | [9] 94 % of control | [3] 86 % of control | [10] 90 % of control

C#CC(CC(C)CC(C)(C)C)N(C)C (stereo unspecified)
inactive: [1] 98 % of control

Cc1c(Cl)c(N)c(Cl)c(Cl)c1Cl
inactive: [8] 101 % of control | [9] 104 % of control | [10] 96 % of control

COCC/C=C/CCl
inactive: endpoint: mean survival time, dose: 25.0 mg/kg/injection, schedule: Q01DX009 (ip), vehicle: saline with Tween-80 100 % of control | [15] 92 % of control | [1] 100 % of control

CC1(C)COC(c2ccccc2Br)=N1
inactive: [11] 109 % of control | [12] 101 % of control | [13] 101 % of control

CCOC(=O)N/N=C/c1cc(Cl)cc(Cl)c1O
inactive: [16] 111 % of control | [11] 98 % of control | [12] 90 % of control

Cc1ccc2nc(O)cc(=O)n2c1
inactive: [4] 103 % of control | [5] 103 % of control | [6] 97 % of control | [7] 94 % of control

CC1=C[S+](c2ccccc2)c2cccc3cc4ccccc4c1c23 (stereo unspecified)
inactive: endpoint: mean survival time, dose: 5.0 mg/kg/injection, schedule: Q01DX001 (ip), vehicle: saline with Tween-80 111 % of control | endpoint: mean survival time, dose: 10.0 mg/kg/injection, schedule: Q01DX001 (ip), vehicle: saline with Tween-80 106 % of control | endpoint: median survival time, dose: 0.06 mg/kg/injection, schedule: Q01DX009 (ip), vehicle: saline with Tween-80 105 % of control | endpoint: median survival time, dose: 0.12 mg/kg/injection, schedule: Q01DX009 (ip), vehicle: saline with Tween-80 105 % of control | endpoint: median survival time, dose: 0.25 mg/kg/injection, schedule: Q01DX009 (ip), vehicle: saline with Tween-80 107 % of control | endpoint: median survival time, dose: 0.5 mg/kg/injection, schedule: Q01DX009 (ip), vehicle: saline with Tween-80 109 % of control | endpoint: median survival time, dose: 1.0 mg/kg/injection, schedule: Q01DX009 (ip), vehicle: saline with Tween-80 109 % of control | endpoint: median survival time, dose: 2.0 mg/kg/injection, schedule: Q01DX009 (ip), vehicle: saline with Tween-80 115 % of control

CCCCn1c(=O)cc(C(=O)O)c2ccccc21
inactive: [1] 93 % of control | [2] 97 % of control | [3] 89 % of control

O=C(Nc1cccc2ccccc12)OC1CCCCC1Br (stereo unspecified)
inactive: endpoint: mean survival time, dose: 6.25 mg/kg/injection, schedule: Q01DX001 (ip), vehicle: saline with Tween-80 100 % of control | endpoint: mean survival time, dose: 12.5 mg/kg/injection, schedule: Q01DX001 (ip), vehicle: saline with Tween-80 92 % of control | endpoint: mean survival time, dose: 25.0 mg/kg/injection, schedule: Q01DX001 (ip), vehicle: saline with Tween-80 100 % of control | [16] 93 % of control | [11] 89 % of control

Cc1cc(Cl)ccc1NS(=O)(=O)c1cccc([N+](=O)[O-])c1
inactive: [8] 97 % of control | [9] 93 % of control | [10] 90 % of control

C=CC1(C)CCN=C(CCC(C(=O)OCC)C(=O)OCC)O1 (stereo unspecified)
inactive: endpoint: mean survival time, dose: 100.0 mg/kg/injection, schedule: Q01DX001 (ip), vehicle: saline sonified 103 % of control | endpoint: mean survival time, dose: 200.0 mg/kg/injection, schedule: Q01DX001 (ip), vehicle: saline sonified 97 % of control | endpoint: mean survival time, dose: 400.0 mg/kg/injection, schedule: Q01DX001 (ip), vehicle: saline sonified 100 % of control

Nc1nc(N)nc(Cl)n1
inactive: endpoint: mean survival time, dose: 25.0 mg/kg/injection, schedule: Q04DX002 (ip), vehicle: saline with Tween-80 90 % of control | endpoint: mean survival time, dose: 50.0 mg/kg/injection, schedule: Q04DX002 (ip), vehicle: saline with Tween-80 101 % of control | [14] 90 % of control

C=C(Br)CNC(=O)OCCCC
inactive: [15] 88 % of control

Cc1ccc2scc3c4ccccc4nc-3c2c1
inactive: endpoint: mean survival time, dose: 100.0 mg/kg/injection, schedule: Q04DX003 (ip), vehicle: acetone 97 % of control
